Measured values reported in patent US20260115209A1, “COMBINATION THERAPY INCLUDING COX-2 INHIBITOR FOR THE TREATMENT OF CANCER” (THE REGENTS OF THE UNIVERSITY OF CALIFORNIA, priority 2022, published 2026).

How the values were obtained:
[1] = tested on: BRAF^V600E CRC cell lines; experiment: Cell viability assays, drug combinations, shift in vemurafenib sensitivity and combination index; assay type: cell-based; settings: FIG. 5C
Experimental: To assess the growth/survival response of cell lines to single or combinatorial drug treatments, we used CellTiter-Glo cell viability assay (Promega; cat #G7571). Cell culture and luminescence readouts were performed in 96- and 384-well plates after 3-day treatments.
To calculate CI values in FIGS. 2A, 2B, 2E, FIGS. 5C, 5E, 5G and FIG. 6A, we applied the Bliss Independence model (54,55), which uses experimental profiles and avoids inaccuracies that commonly occur with dose-effect curve estimation approaches. CI is calculated as CI=−log 2 (Eab/(Ea*Eb)), where Ea and Eb correspond to the effects of drugs a and b alone at a given concentration, and Eab corresponds to the combined effects of drugs a and b at these same concentrations. In this model, CI>0 indicates synergistic effect, CI=0 indicates additivity effect, CI<0 indicates antagonistic effect.
To compare the effects of triple versus dual drug combinations in FIG. 3B, we calculated CI as follow: CI=−log 2 (Eabc/(Ea*Eb)), where Ea and Eb correspond to the effects of drugs a/VEM, b/GEF alone at a given concentration, and Eabc corresponds to the combined effects of drugs a and b at these same concentrations combined with a third drug (c/DAS) at the cell line-specific GI50 of DAS.

[2] = tested on: SFK; experiment: Western blot of SFK activation (Y419 phosphorylation); assay type: cell-based; settings: BRAF^V600E CRC cell lines
Experimental: (§1) For samples to be analyzed with the HT-KAM platform, cells at ˜85% confluency were washed three times with cold PBS and lysed with freshly prepared 1× cell lysis buffer (1 ml per 2.5×10^6 cells) (lOX Cell Lysis Buffer, Cell Signaling; cat. #9803) complemented with 1× of Halt Protease & Phosphatase (100×, ThermoScientific; cat. #1861281). Cell lysates were collected and spun down at 14,000 rpm for 15 min at 4° C. and supernatants stored at −80° C. For samples to be analyzed by western blot, cell lysates were prepared with RIPA lysis buffer (150 mM NaCl, 0.1% SDS, 1% Nonidet P40, 1% sodium deoxycholate and 10 mM sodium phosphate, pH 7.2) supplemented with protease and phosphatase inhibitors. After clearing by centrifugation at 12,000 rpm for 10 minutes at 4° C., the lysates were analyzed as described in the respective experiments.
(§2) For western-blot, samples were denatured by boiling in 1× Laemmli buffer and run on an 8% SDS-PAGE gel. After transfer onto a PVDF membrane and blocking with 3% BSA, the membranes were incubated with primary antibodies overnight at 4° C., washed 3 times with TBST (Tris-buffered saline containing 0.05% Tween-20), incubated with secondary antibodies for 1 hour at room temperature and developed using chemoluminescence (cat #32209 from Pierce).
Antibodies anti-HSP90 was procured from Santa Cruz Biotechnologies (H-114, cat #7947). […]

[3] = tested on: beta-catenin (CTNNB1) Y654; experiment: Western blot of beta-catenin Y654 phosphorylation; assay type: cell-based; settings: BRAF^V600E CRC cell lines, FIG. 4A, 11C, 12A
Experimental: as §1, §2

[4] = tested on: SRC; experiment: Automated IHC of active and total SRC in PDX tumors; assay type: in vivo, mice; settings: both PDX models after 3 or 21 days of treatment; FIGS. 1E, 1F, 8B, 8C
Experimental: Primary antibody was diluted in Discovery Ab Diluent.
To detect phospho-Y419 SRC, phospho-Src (Y419) […] rabbit polyclonal supplied by R&D Systems (Cat #AF2685) was used at a titration of 1:50. […] Inhibitor was applied for 16 min.
To detect total SRC, TOTAL SRC (36D1) rabbit monoclonal manufactured by Cell Signaling Technology (Cat #2109) was used at a titration of 1:800. […] Inhibitor was applied for 16 minutes.

[5] = tested on: A375; experiment: Cell viability assay (CellTiter-Glo), GI50, 3-day treatment; assay type: cell-based; settings: Homo sapiens, A-375, 72 h; A375 (BRAF^V600E melanoma); 50% growth inhibition after 3 days of treatment compared to control; read-out: GI50 concentrations
Experimental: (§3) To assess the growth/survival response of cell lines to single or combinatorial drug treatments, we used CellTiter-Glo cell viability assay (Promega; cat #G7571). Cell culture and luminescence readouts were performed in 96- and 384-well plates after 3-day treatments. GI50 corresponds to the concentration of a given drug that causes 50% inhibition of cell growth (GI50). The effects of drug combinations on cell growth were assessed by calculating fold change in VEM-sensitivity and combination index (C.I.) that were experimentally measured from ≥9 individual datapoints around drugs' GI50, i.e. at GI50, 0.5×GI50, 2×GI50 concentrations of each drug per drug combination experiment. To address the particular effects of some drug treatments on some cell lines, the choice of experimental datapoints centered around drugs' GI50 effects was adjusted by including individual datapoints ranging from ≥GI25 to ≤GI75, leading to calculate fold change in VEM-sensitivity and combination index (C.I.) from 12 to 20 individual datapoints, as previously explained (7).

[6] = tested on: HT29; experiment: as above; assay type: cell-based; settings: Homo sapiens, HT-29, 72 h; HT29 (BRAF^V600E CRC); 50% growth inhibition after 3 days of treatment compared to control; read-out: GI50 concentrations
Experimental: as §3

[7] = tested on: KM20; experiment: as above; assay type: cell-based; settings: 72 h; KM20 (BRAF^V600E CRC); 50% growth inhibition after 3 days of treatment compared to control; read-out: GI50 concentrations
Experimental: as §3

[8] = tested on: LIM2405; experiment: as above; assay type: cell-based; settings: 72 h; LIM2405 (BRAF^V600E CRC); 50% growth inhibition after 3 days of treatment compared to control; read-out: GI50 concentrations
Experimental: as §3

[9] = tested on: LS411N; experiment: as above; assay type: cell-based; settings: Homo sapiens, LS-411N, 72 h; LS411N (BRAF^V600E CRC); 50% growth inhibition after 3 days of treatment compared to control; read-out: GI50 concentrations
Experimental: as §3

[10] = tested on: OUMS23; experiment: as above; assay type: cell-based; settings: OUMS-23, 72 h; OUMS23 (CRC MAP3K8^amp); 50% growth inhibition after 3 days of treatment compared to control; read-out: GI50 concentrations
Experimental: as §3

[11] = tested on: RKO1; experiment: as above; assay type: cell-based; settings: 72 h; RKO1 (BRAF^V600E CRC); 50% growth inhibition after 3 days of treatment compared to control; read-out: GI50 concentrations
Experimental: as §3

[12] = tested on: SNUC5; experiment: as above; assay type: cell-based; settings: 72 h; SNUC5 (BRAF^V600E CRC); 50% growth inhibition after 3 days of treatment compared to control; read-out: GI50 concentrations
Experimental: as §3

[13] = tested on: Sk-Mel-28; experiment: as above; assay type: cell-based; settings: Homo sapiens, 72 h; Sk-Mel-28 (BRAF^V600E melanoma); 50% growth inhibition after 3 days of treatment compared to control; read-out: GI50 concentrations
Experimental: as §3

[14] = tested on: VACO432; experiment: as above; assay type: cell-based; settings: 72 h; VACO432 (BRAF^V600E CRC); 50% growth inhibition after 3 days of treatment compared to control; read-out: GI50 concentrations
Experimental: as §3

[15] = tested on: WiDr; experiment: as above; assay type: cell-based; settings: Homo sapiens, 72 h; WiDr (BRAF^V600E CRC); 50% growth inhibition after 3 days of treatment compared to control; read-out: GI50 concentrations
Experimental: as §3

GI50 [5]	GI50 [6]	GI50 [12]	Compound	increase in resistance to vemurafenib ([1]; BRAF^V600E CRC cells treated with PGE2, 3-day cell viability assays)	CI scores ([1]; PGE2 with vemurafenib in BRAF^V600E CRC cells, Bliss model)	SFK activation (phosphorylation of Y419) [2]	phosphorylation of beta-catenin (CTNNB1) at Y654 [3]	active and total SRC (IHC) [4]	GI50 [7]	GI50 [8]	GI50 [9]	GI50 [10]	GI50 [11]	GI50 [13]	GI50 [14]	GI50 [15]
–	–	–	CCCCC[C@H](O)/C=C/[C@H]1[C@H](O)CC(=O)[C@@H]1C/C=C\CCCC(=O)O [PGE2, Prostaglandin E2]	2 to 4 fold	antagonism	increase in SFK activation	increase in phosphorylation	–	–	–	–	–	–	–	–	–
–	–	–	CC(C)(C)c1nc(-c2cccc(NS(=O)(=O)c3c(F)cccc3F)c2F)c(-c2ccnc(N)n2)s1 [dabrafenib, N-[3-[5-(2-Amino-4-pyrimidinyl)-2-(2-methyli-2-propanyl)-1,3-tliazol-4-yl]-2-fluorophenyl]-2,6-difluorobenzenesulfonarmide]	–	–	–	–	statistically significant increases	–	–	–	–	–	–	–	–
3.5 µM	8 µM	6.5 µM	Cc1nc(Nc2ncc(C(=O)Nc3c(C)cccc3Cl)s2)cc(N2CCN(CCO)CC2)n1 [dasatinib, N-(2-chloro-6-mnethylphenyl)-2-[[6-[4-(2-hydroxyethyl)piperazin-1-yl]-2-methylpyrimidin-4-yl]amino]-1,3-thiazole-5-carboxamide]	–	–	–	–	–	0.8 µM	1.5 µM	3 µM	1.9 µM	10 µM	6.5 µM	2 µM	0.9 µM
30 µM	25 µM	30 µM	COc1cc2ncnc(Nc3ccc(F)c(Cl)c3)c2cc1OCCCN1CCOCC1 [gefitinib, N-(3-chloro-4-fluorophenyl)-7-methoxy-6-(3-morpholin-4-ylpropoxy)quinazolin-4-amine]	–	–	–	–	–	20 µM	30 µM	30 µM	40 µM	40 µM	20 µM	7.5 µM	10 µM
–	–	–	CC(=O)Nc1cccc(-n2c(=O)n(C3CC3)c(=O)c3c(Nc4ccc(I)cc4F)n(C)c(=O)c(C)c32)c1 [trametinib, N-[3-[3-cyclopropyl-5-(2-fluoro-4-iodoanilino)-6,8-dimethyl-2,4,7-trioxopyrido[4,3-d]pyrimidin-1-yl]phenyl]acetamide]	–	–	–	–	statistically significant increases	–	–	–	–	–	–	–	–
